Like-named read-outs stand apart in the source and are kept apart here. Where a SMILES comes first, the peptide text is derived from it. Bridges are numbered along the chain shown (N, C = ends). [ ]: non-standard residue; d: D form. 2Nal = N[C@@H](Cc1ccc2ccccc2c1)C(=O)O; AEF = NCCOc1ccc(C[C@H](N)C(=O)O)cc1; Pen = CC(C)(S)[C@H](N)C(=O)O; Thp = NC1(C(=O)O)CCOCC1 A value given as a limit tells only on which side of the number the result lay.

Series [1] has as its system DSS-induced colitis, Sprague Dawley rats. The series is described as follows: Rat Colitis Model: 9 Days of 3% DSS-Containing Drinking Water. It counts as in vivo. To be noted: 100 mg/kg PO, QD.
The subject of series [2] is Cyno IL-23R. It counts as binding.
Series [3] concerns IL-23R in human DB cells. Put plainly: Schild analysis, Human DB Cell (pSTAT3). It counts as cell-based. To be noted: 0.3-100 nM peptide.
Series [4] can be described thus: Stability in simulated intestinal fluid (SIF). It counts as in vitro ADME. To be noted: simulated intestinal fluid (SIF) with pancreatin, pH 6.8; read-out: Stability (t1/2, hr) SIF (converted). The arrangement: dose or concentration left out as unconfirmed.
In series [5] the test system is distal colon tissue of TNBS-exposed rats. The series is described as follows: Biomarkers in distal colon of TNBS rats (ELISA). It counts as in vivo, rat. To be noted: vs vehicle treated controls. The method, then:
Levels of inflammatory markers were examined in the colons. The distal colon tissue samples, designated for protein expression analysis, were flash frozen after collection. For protein extraction, the samples were thawed, weighed and homogenized in the extraction buffer (PBS pH 7.2 supplemented with Protease Inhibitors, 3× volume:weight). The homogenates were centrifuged at 13 krpm at 4° C. for 15 minutes, a total of two times to remove the debris. The supernatants were saved in multiple aliquots in −80° C. and subsequently used for protein expression analysis on ELISA. The total protein in each sample was quantified using BCA assay.
A general note: ELISA stands for enzyme-linked immunosorbent assay.

For series [6], the system named is TNBS-induced acute colitis, Sprague-Dawley rats. The series is described as follows: TNBS induced colitis in rat. It is filed as in vivo.
A short description of series [7]: Stability in simulated gastric fluid (SGF). It counts as in vitro ADME. To be noted: pig, simulated gastric fluid (SGF) with porcine pepsin, pH 2.
Series [8] deals with rat splenocytes. The series is described as follows: Rat Splenocyte Assay (IL-17A). It is filed as cell-based. Conditions: IL-17A produced by activated splenocytes exposed to IL-23; read-out: Cell assay (nM) Rat (Spleen), IC50. The method, then:
A new assay developed was the rat splenocyte assay.
Briefly, splenocytes freshly isolated from rat were seeded in 96-well tissue culture plates in complete medium containing IL-10. […] Changes in IL-17A levels in the supernatants were detected using an ELISA.

A short description of series [9]: DTT stability assay (redox stability). It is filed as in vitro ADME. Conditions: half-life, 0.5 mM DTT, room temperature, numeric.
The target in series [10] is human IL-23R (IL23R_huFC) (Homo sapiens, UniProt Q5VWK5). To be noted: read-out: ELISA IL23R/IL23 in nMoles (IC50); non-cyclic peptides.
human IL-23R (IL23R_huFC), sequence (Q5VWK5 24-354 limits assumed, looked up): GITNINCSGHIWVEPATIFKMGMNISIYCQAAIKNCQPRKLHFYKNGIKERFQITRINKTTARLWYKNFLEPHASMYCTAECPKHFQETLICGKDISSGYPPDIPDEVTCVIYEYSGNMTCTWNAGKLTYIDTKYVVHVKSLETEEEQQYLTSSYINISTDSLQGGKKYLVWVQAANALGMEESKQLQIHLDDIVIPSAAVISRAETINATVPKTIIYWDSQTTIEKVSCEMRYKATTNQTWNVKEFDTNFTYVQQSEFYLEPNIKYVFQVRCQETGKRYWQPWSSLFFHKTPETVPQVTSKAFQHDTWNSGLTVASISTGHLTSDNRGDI
The mark [11] stands for this setting: read-out: Cross Reactivity (nM) ELISA cyno IL23R IL23.

For the compound `O=C(O)c1cc(/N=N/c2ccc(S(=O)(=O)Nc3ccccn3)cc2)ccc1O` [sulfasalazine], the “terminal ratio of colon weight:colon length” value in series [1] (difference vs DSS alone) is recorded as “significant”. Also, in series [1] (from Day 5, vs DSS alone), the “disease score (DAI)” value is recorded as “attenuated”.
With Hy-CADWVCYWHTFG-NH2 [SEQ ID NO: 169], the IC50 in series [2] (setting [11]) lay in the range of 1000 to 10000 nM.
`CC(=O)NCCCC[C@H](NC(=O)C1(NC(=O)[C@H](Cc2ccc3ccccc3c2)NC(=O)[C@H](Cc2ccc(OCCN)cc2)NC(=O)[C@H]2NC(=O)[C@H](CCC(N)=O)NC(=O)[C@H](Cc3c[nH]c4ccccc34)NC(=O)[C@H]([C@@H](C)O)NC(=O)[C@H](CC(N)=O)NC(=O)[C@@H](NC(C)=O)C(C)(C)SSC2(C)C)CCOCC1)C(=O)N[C@@H](CC(N)=O)C(=O)N[C@@H](CC(N)=O)C(=O)N[C@@H](CC(N)=O)C(N)=O` [SEQ ID NO: 1211, Ac-[Pen]-NTWQ-[Pen]-[Phe[4-(2-aminoethoxy)]-[2-Nal]-[4-amino-4-carboxy-tetrahydropyran]-[Lys(Ac)]-NNN-NH2] (Ac-[Pen]NTWQ[Pen][AEF][2Nal][Thp]K(Ac)NNN-NH2; disulfide 1-6) registered a Schild slope in series [3] of 0.76.
As to `CC(=O)N[C@@H]1CCSC[C@@H](C(=O)N[C@@H](Cc2ccc(OCCN)cc2)C(=O)N[C@@H](Cc2ccc3ccccc3c2)C(=O)NC2(C(=O)N[C@@H](CCC(=O)O)C(=O)N[C@@H](CC(N)=O)C(=O)N[C@@H](CC(N)=O)C(N)=O)CCOCC2)NC(=O)[C@H](CCC(N)=O)NC(=O)[C@H](Cc2c[nH]c3ccccc23)NC(=O)[C@H]([C@@H](C)O)NC(=O)[C@@H](CCC(N)=O)NC1=O` [SEQ ID NO: 980], the half-life in series [4] is 11 h. In addition, in series [5], the “IL-22 level in colon” value is “reduced” and the “MPO level in colon” value is listed as “reduced”. Besides, in [6] (Example 14, vs vehicle), the colon macroscopic score result was “significantly reduced” and the “sum of the histopathology score” value is given as “significantly reduced”. Further, the weight loss result in series [6] (Example 14, 37 mg/kg/day oral) was “prevented”. The half-life at 20 μM in series [7] is 10 h.
Take “Ac-[Pen]-NTWQ-[Pen]-[Phe[4-(2-aminoethoxy)]-[2-Nal]-[4-amino-4-carboxy-tetrahydropyran]-[Lys(Ac)]—NN—NH2 [SEQ ID NO: 1185]”: in series [5], the “IL-17A level in colon” value is given as “did not significantly reduce”, the “IL-22 level in colon” value is listed as “did not significantly reduce” and the “MPO level in colon” value is recorded as “did not significantly reduce”. In addition, the histopathology scores entry in series [6] (Example 12) was “did not significantly reduce”. Besides, the colon macroscopic score result in series [6] (Example 12, vs vehicle) is recorded as “significantly reduced”. Further, the weight loss result in series [6] (Example 12, Peptide 1185 37 mg/kg/day PO, anti-IL-23p19 4 mg/kg ip, prednisolone 10 mg/day P.O., vs vehicle) was “did not significantly prevent”. Besides, the IC50 in series [2] (IL-23/IL-23R competitive binding, cyno, read-out: ELISA (nM) Cyno, IC50) was 3 nM. Moreover, in series [8], the IC50 came to 35 nM.
As for `CC(=O)NC1CCSCC(C(=O)NC(Cc2ccc(OCCN)cc2)C(=O)NC(Cc2ccc3ccccc3c2)C(=O)NC2(C(=O)NC(CCC(=O)O)C(=O)NC(CC(N)=O)C(=O)NC(CC(N)=O)C(N)=O)CCOCC2)NC(=O)C(CCC(N)=O)NC(=O)C(Cc2c[nH]c3ccccc23)NC(=O)C(C(C)O)NC(=O)C(CCC(N)=O)NC1=O` (stereo not shown) [SEQ ID NO: 1290, Ac-cyclo[[Abu]-QTWQC]-[Phe[4-(2-aminoethoxy)]-[2-Nal]-[4-amino-4-carboxy-tetrahydropyran]-ENN-NH2], in series [9], the “DTT Stability” value is over 120 min. Moreover, the IC50 in series [10] is over 100000 nM.
On to “H-CSNWVCYWHTYG-NH2 (cysteine pairing not given here) [SEQ ID NO: 198]”, for which the IC50 in series [2] (setting [11]) is under 250 nM.

These data come from US10787490B2, “Peptide inhibitors of interleukin-23 receptor and their use to treat inflammatory diseases” (Protagonist Therapeutics, Inc., priority 2015, dated 2020).
